Where a name gives a salt, the structure may show the parent alone. Read-outs that look alike come from different tables or passages of the source.
Columns and labels:
HuTu 80 = experiment: MTT cytotoxicity, HuTu 80; type: cell-based, human; settings: for IC50: MTT, 48 h incubation, read-out: IC50 (µM) Cancer Cell Lines HuTu 80; for Selectivity index (SI) = IC50(normal)/IC50(tumoral): Chang liver vs HuTu 80
Excerpt: (§1) Cells and Materials. For the experiments, we used tumor cell cultures M-HeLa clone 11 (epithelioid carcinoma of the cervix, subline HeLa, clone M-HeLa), HuTu 80, human duodenal adenocarcinoma, Hep-2, human epithelial cells, SH-SY5Y, human neuroblast-like cells, A549, human lung adenocarcinoma, PA-1, human ovarian teratocarcinoma and MCF-7, a human mammary ductal adenocarcinoma from the collection of the Institute of Cytology, Russian Academy of Sciences (St. Petersburg, Russia); human liver cells (Chang liver) were from the collection and the Research Institute of Virology of the Russian Academy of Medical Sciences (Moscow, Russia).
(§2) MTT Assay. The cytotoxic effect on cells was determined using the colorimetric method of cell proliferation—the MTT test. NADP-H-dependent cellular oxidoreductase enzymes can, under certain conditions, reflect the number of viable cells. These enzymes reduce the tetrazolium dye (MTT) 3-(4,5-dimethylthiazol-2-yl)-2,5-diphenyl-tetrazolium bromide to insoluble blue-violet formazan, which crystallizes inside the cell. The amount of formed formazan is proportional to the number of cells with active metabolism. Cells were seeded on a 96-well Nunc plate at a concentration of 5 × 10^3 cells per well in a volume of 100 μL of medium and cultured in a CO2 incubator at 37 °C until a monolayer was formed. After the nutrient medium was removed, 100 µL of the test drug solutions at the given dilutions were added to the wells, which were prepared directly in the nutrient medium with the addition of 5% DMSO to improve solubility. After 48 h of incubation of the cells with the tested compounds, the nutrient medium was removed from the plates and 100 µL of the nutrient medium without serum with MTT at a concentration of 0.5 mg/mL was added and incubated for 4 h at 37 °C. Formazan crystals were added 100 µL of DMSO to each well. Optical density was recorded at 540 nm on an Invitrologic microplate reader (Novosibirsk, Russia). The experiments for all compounds were repeated three times.
(§3) Statistical analysis. The IC50 values were calculated using the MLA–Quest Graph™ IC50 Calculator (AAT Bioquest, Inc., Sunnyvale, CA, USA), 14 February 2022. Statistical analysis was performed with the Mann–Whitney test (p < 0.05). Tabular and graphical data contain averages and standard error.

M-HeLa = experiment: MTT cytotoxicity, M-HeLa; type: cell-based, human; settings: MTT, 48 h incubation, read-out: IC50 (µM) Cancer Cell Lines M-HeLa
Excerpt: as §1, §2, §3

Chang Liver = experiment: MTT cytotoxicity, normal Chang liver cells; type: cell-based, human; settings: 48 h incubation, read-out: IC50 (µM) Normal Cell Line Chang Liver
Excerpt: as §1, §2, §3

SMILES | melting point | IC50 (HuTu 80; Homo sapiens, HuTu80, 48 h) | IC50 (M-HeLa; Homo sapiens, M-HeLa) | IC50 (Chang Liver; Homo sapiens, Chang liver) | Selectivity index (SI) = IC50(normal)/IC50(tumoral) (HuTu 80) | IC50 (HuTu 80; Homo sapiens, HuTu80) | IC50 (HuTu 80) | IC50 (M-HeLa) | IC50 (Chang Liver)
O=C(NCC(c1c(O)c2ccccc2oc1=O)c1c(O)c2ccccc2oc1=O)c1nc2ccccc2[nH]1 | 263 to 265 °C | – | – | – | – | – | – | – | –
O=C(CCl)NCC(c1c(O)c2ccccc2oc1=O)c1c(O)c2ccccc2oc1=O | 187 to 188 °C | – | – | – | – | – | – | – | –
C[P+](CC(=O)NCCC1c2c(ccc3ccccc23)Oc2ccc3ccccc3c21)(c1ccccc1)c1ccccc1 (as salt: salt) [Compound 6b] | 161 to 162 °C | – | – | – | – | – | – | – | –
COC(CNC(=O)CCl)OC [Compound 2a] | – | > 100 µM | > 100 µM | > 100 µM | – | – | – | – | –
CCOC(CCNC(=O)CCl)OCC [Compound 2b] | – | > 100 µM | > 100 µM | > 100 µM | – | – | – | – | –
O=C(CCl)NCC1c2c(ccc3ccccc23)Oc2ccc3ccccc3c21 [Compound 3a] | 200 to 203 °C | > 100 µM | > 100 µM | > 100 µM | – | – | – | – | –
O=C(CCl)NCC1c2c(ccc3ccc(O)cc23)Oc2ccc3ccc(O)cc3c21 [Compound 3b] | > 250 °C | 53.9 ± 4.3 µM | 96.4 ± 8.4 µM | 78.2 ± 6.8 µM | – | – | – | – | –
O=C(CCl)NCCC1c2c(ccc3ccccc23)Oc2ccc3ccccc3c21 [Compound 3c] | 147 to 149 °C | 29.3 ± 2.1 µM | 49.6 ± 3.9 µM | > 100 µM | – | – | – | – | –
O=C(CCl)NCCC1c2c(ccc3ccc(O)cc23)Oc2ccc3ccc(O)cc3c21 [Compound 3d] | 137 to 139 °C | 18.1 ± 1.4 µM | 38.4 ± 2.7 µM | 54.8 ± 4.4 µM | 3 | – | – | – | –
O=C(CCl)NCCCC1c2c(ccc3ccccc23)Oc2ccc3ccccc3c21 [Compound 3e] | 164 to 165 °C | > 100 µM | 56.6 ± 4.4 µM | 73.3 ± 6.4 µM | – | – | – | – | –
O=C(CCl)NCCCC1c2c(ccc3ccc(O)cc23)Oc2ccc3ccc(O)cc3c21 [Compound 3f] | 180 °C | – | – | – | – | – | – | – | –
O=C(CCl)NCC(c1cc2c(cc1O)OCO2)c1cc2c(cc1O)OCO2 [Compound 4a] | 180 to 182 °C | > 100 µM | > 100 µM | > 100 µM | – | – | – | – | –
O=C(CCl)NCCC(c1cc2c(cc1O)OCO2)c1cc2c(cc1O)OCO2 [Compound 4b] | 166 to 168 °C | 26.2 ± 1.7 µM | 84.6 ± 7.5 µM | > 100 µM | – | – | – | – | –
O=C(CCl)NCCCC(c1cc2c(cc1O)OCO2)c1cc2c(cc1O)OCO2 [Compound 4c] | 189 to 191 °C | > 100 µM | > 100 µM | > 100 µM | – | – | – | – | –
O=C(CCl)NCCC(c1c(O)c2ccccc2oc1=O)c1c(O)c2ccccc2oc1=O [Compound 5b] | 134 °C | – | 65.3 ± 5.4 µM | 68.1 ± 5.4 µM | – | 52.1 ± 4.2 µM | – | – | –
C[P+](CC(=O)NCCC1c2c(ccc3ccccc23)Oc2ccc3ccccc3c21)(c1ccccc1)c1ccccc1 [Compound 6b] | – | 64.3 ± 5.2 µM | 28.4 ± 1.8 µM | > 100 µM | – | – | – | – | –
O=C(C[P+](c1ccccc1)(c1ccccc1)c1ccccc1)NCCCC1c2c(ccc3ccccc23)Oc2ccc3ccccc3c21 [Compound 6c] | 204 to 205 °C | 7.3 ± 0.6 µM | 26.6 ± 1.9 µM | 33.4 ± 2.8 µM | 4.6 | – | – | – | –
C[P+](CC(=O)NCCCC1c2c(ccc3ccccc23)Oc2ccc3ccccc3c21)(c1ccccc1)c1ccccc1 [Compound 6d] | 199 to 200 °C | 18.5 ± 1.5 µM | 53.2 ± 4.6 µM | 56.2 ± 4.7 µM | 3 | – | – | – | –
O=C(C[n+]1ccccc1)NCCC1c2c(ccc3ccccc23)Oc2ccc3ccccc3c21.[Cl-] [Compound 8] | 156 °C | 58.4 ± 4.6 µM | 85.2 ± 7.4 µM | 100 ± 9.2 µM | – | – | – | – | –
COC(CNC(=O)c1nc2ccccc2[nH]1)OC [Compound 10a] | – | – | – | – | – | – | > 100 µM | > 100 µM | > 100 µM
COc1cccc2c1C(=O)c1c(O)c3c(c(O)c1C2=O)C[C@@](O)(C(=O)CO)C[C@@H]3O[C@H]1C[C@H](N)[C@H](O)[C@H](C)O1 [Doxorubicin, reference compound] | – | 3 ± 0.2 µM | 3 ± 0.2 µM | 3 ± 0.1 µM | 1 | – | – | – | –
CNC(=O)c1cc(Oc2ccc(NC(=O)Nc3ccc(Cl)c(C(F)(F)F)c3)cc2)ccn1 [Sorafenib, reference compound] | – | 5 ± 0.4 µM | 35.6 ± 2.8 µM | 35 ± 2.7 µM | 7 | – | – | – | –

Continued, in another order:

melting point | SMILES | IC50 (HuTu 80; Homo sapiens, HuTu80, 48 h) | IC50 (M-HeLa; Homo sapiens, M-HeLa) | IC50 (Chang Liver; Homo sapiens, Chang liver) | Selectivity index (SI) = IC50(normal)/IC50(tumoral) (HuTu 80) | IC50 (HuTu 80; Homo sapiens, HuTu80) | IC50 (HuTu 80) | IC50 (M-HeLa) | IC50 (Chang Liver)
178 to 181 °C | O=C(C[P+](c1ccccc1)(c1ccccc1)c1ccccc1)NCC(c1cc2c(cc1O)OCO2)c1cc2c(cc1O)OCO2 [Compound 7a] | 59.7 ± 4.6 µM | 73.5 ± 6.2 µM | > 100 µM | – | – | – | – | –
> 250 °C | O=C(C[P+](c1ccccc1)(c1ccccc1)c1ccccc1)NCCC(c1cc2c(cc1O)OCO2)c1cc2c(cc1O)OCO2 [Compound 7b] | 55.4 ± 4.5 µM | 65.8 ± 5.8 µM | > 100 µM | – | – | – | – | –
178 to 180 °C | O=C(C[n+]1ccccc1)NCC(c1cc2c(cc1O)OCO2)c1cc2c(cc1O)OCO2 [Compound 9a] | > 100 µM | > 100 µM | > 100 µM | – | – | – | – | –
159 °C | O=C(C[n+]1ccccc1)NCCC(c1cc2c(cc1O)OCO2)c1cc2c(cc1O)OCO2 [Compound 9b] | > 100 µM | 97.8 ± 8.2 µM | 95.4 ± 8.7 µM | – | – | – | – | –
216 °C | O=C(NCC1c2c(ccc3ccccc23)Oc2ccc3ccccc3c21)c1nc2ccccc2[nH]1 [Compound 11a] | > 100 µM | > 100 µM | > 100 µM | – | – | – | – | –
224 to 225 °C | O=C(NCC1c2c(ccc3ccc(O)cc23)Oc2ccc3ccc(O)cc3c21)c1nc2ccccc2[nH]1 [Compound 11b] | 11.5 ± 0.9 µM | 94.3 ± 7.9 µM | 53.1 ± 4.3 µM | – | – | – | – | –
216 to 217 °C | O=C(NCC(c1cc2c(cc1O)OCO2)c1cc2c(cc1O)OCO2)c1nc2ccccc2[nH]1 [Compound 12a] | – | – | – | – | – | – | – | –
189 to 191 °C | Cc1cc(O)c(C(CCNC(=O)c2nc3ccccc3[nH]2)c2c(O)cc(C)oc2=O)c(=O)o1 [Compound 12c] | – | – | – | – | – | – | – | –
